Results on seven molecules are retold here after ChEMBL document CHEMBL3853283, “Nitric Oxide Inhibitory Meroterpenoids from the Fungus Penicillium purpurogenum MHZ 111” (J Nat Prod, 2016).

Where only a bound is given, the exact number is not on record here.

Series [1] concerns BV-2 microglial cells (Mus musculus). Kind of series: Antineuroinflammatory activity in mouse BV2 cells assessed as inhibition of LPS-induced nitric oxide production at 50 uM preincubated for 10 mins followed by LPS stimulation for 24 hrs by Griess assay. On the technique in general: Griess reagent forms a coloured azo dye with nitrite.
The nature of series [2]: Antineuroinflammatory activity in […] of LPS-induced nitric oxide production preincubated for 10 mins followed by LPS stimulation for 24 hrs by Griess assay. Conditions: BV-2. In kind it is functional, cell-based.
Series [3] in a line: Cytotoxicity against […] cells assessed as decrease in cell viability up to 100 uM preincubated for 10 mins followed by LPS stimulation for 24 hrs by MTT assay. The series is classed as toxicity, cell-based. Conditions: bv-2, 24 h.

Regarding `CC(=O)O[C@@H]1c2c3c(cc(O)c2C(=O)OC1C)O[C@@]1(C)[C@@H](O)C[C@H]2C(C)(C)C(=O)C=C[C@]2(C)[C@@H]1C3` (stereo partly drawn), in series [1], the inhibition (commonly the change of the read-out against control, counted positive when it falls) at 50 µM was less than 50%. For `C[C@@H]1O[C@@H]2OC(=O)[C@]3(C)C[C@@H]4[C@](C)(C(=O)C=C5C(=CC(=O)OC5(C)C)[C@@]45CO5)[C@H](C1=O)[C@H]23` [BERKELEYACETAL C], the IC50 (commonly the concentration needed to halve the response being measured) in series [2] is 0.8 µM. Also, the Activity result in series [3] is recorded as “Non-Toxic”. For the molecule `COC(=O)[C@]12C(=O)[C@@](C)(O)C(=O)[C@](C)(C[C@H]3C(C)=C4CC(=O)OC(C)(C)C4=CC[C@@]31C)[C@]21CO1`, the inhibition at 50 µM in series [1] is less than 50%. As for `COc1ccc2c(c1)c(CC(=O)O)c(C)n2C(=O)c1ccc(Cl)cc1` [INDOMETHACIN], in series [2], the IC50 was 34.5 µM. As to `CC1=C2CC(=O)OC(C)(C)C2=CC[C@@]2(C)[C@H]1C[C@@]1(C)C(=O)[C@@]3(C)O[C@]14COC(=O)[C@@]42C3=O`, the inhibition at 50 µM in series [1] is less than 50%.

For the molecule `CC1Cc2c3c(cc(O)c2C(=O)O1)O[C@@]1(C)[C@@H](O)C[C@H]2C(C)(C)C(=O)C=C[C@]2(C)[C@@H]1C3` (stereo partly drawn), the inhibition at 50 µM in series [1] was less than 50%. On the same count and under the same terms, then `C[C@H]1O[C@@H]2OC(=O)[C@]3(C)CC4=C(CO)C5=C(CC(=O)[C@]4(C)[C@H](C1=O)[C@H]23)C(C)(C)OC(=O)C5`, with less than 50%.
